# Measured values from ChEMBL document CHEMBL4811309, “Design, synthesis and antiproliferative activity of novel 2,4-diamino-5-methyleneaminopyrimidine derivatives as potential anticancer agents” (Bioorg Med Chem Lett, 2021).
# Tests used:
# Type in all cases: functional, cell-based
# HCT-116 = test: Antiproliferative activity against human HCT-116 cells assessed as reduction in cell viability by MTT assay
# HeLa = test: Antiproliferative activity against human HeLa cells assessed as reduction in cell viability by MTT assay
# MCF7 = test: Antiproliferative activity against human MCF7 cells assessed as reduction in cell viability by MTT assay
# HT-29 = test: Antiproliferative activity against human HT-29 cells assessed as reduction in cell viability by MTT assay
IC50 (HCT-116),IC50 (HeLa),IC50 (MCF7),IC50 (HT-29),Structure (SMILES)
> 100 µM,> 100 µM,> 100 µM,80.7 µM,CN1CCN(c2ccc(Nc3ncc(/N=C/c4ccc(C(F)(F)F)cc4)c(NC4CCCC4)n3)cc2)CC1
14.8 µM,> 100 µM,> 100 µM,25.3 µM,CC(C)Nc1nc(Nc2ccc(N3CCOCC3)cc2)ncc1/N=C/c1cccs1
> 100 µM,> 100 µM,> 100 µM,98.2 µM,CC(C)Nc1nc(Nc2ccc(S(N)(=O)=O)cc2)ncc1/N=C/c1ccccc1
26.1 µM,15.6 µM,39.1 µM,27 µM,NS(=O)(=O)c1ccc(Nc2ncc(/N=C/c3ccccc3)c(NC3CCCC3)n2)cc1
42.2 µM,> 100 µM,> 100 µM,> 100 µM,CC(C)Nc1nc(Nc2ccc(N3CCN(C)CC3)cc2)ncc1/N=C/c1ccc(C(F)(F)F)cc1
> 100 µM,> 100 µM,> 100 µM,67.6 µM,C(=N\c1cnc(Nc2ccc(N3CCOCC3)cc2)nc1NC1CCCC1)/c1ccccc1
23.7 µM,27.7 µM,15.2 µM,19.6 µM,CCOC(=O)/C=N/c1cnc(Nc2ccc(N3CCOCC3)cc2)nc1NC(C)C
82.1 µM,> 100 µM,50.2 µM,> 100 µM,CC(C)Nc1nc(Nc2ccc(S(N)(=O)=O)cc2)ncc1/N=C/c1cccs1
> 100 µM,21.9 µM,> 100 µM,> 100 µM,NS(=O)(=O)c1ccc(Nc2ncc(/N=C/c3ccc(C(F)(F)F)cc3)c(NC3CCCC3)n2)cc1
17 µM,18.9 µM,42.3 µM,15.1 µM,CCOC(=O)/C=N/c1cnc(Nc2ccc(N3CCN(C)CC3)cc2)nc1NC1CCCC1
> 100 µM,> 100 µM,> 100 µM,12.1 µM,CC(C)Nc1nc(Nc2ccc(N3CCN(C)CC3)cc2)ncc1/N=C/c1ccccc1
97.2 µM,> 100 µM,> 100 µM,> 100 µM,FC(F)(F)c1ccc(/C=N/c2cnc(Nc3ccc(N4CCOCC4)cc3)nc2NC2CCCC2)cc1
18.9 µM,25.7 µM,33.9 µM,21.7 µM,CN1CCN(c2ccc(Nc3ncc(/N=C/c4cccs4)c(NC4CCCC4)n3)cc2)CC1
